Structures can show the parent of a compound that is named as a salt. Where two headings read alike, the source gives them in different places.
What was measured:
[1] = target: limbic D-2 dopamine receptor (Rattus norvegicus, UniProt P61169); assay: inhibition of limbic D-2 dopamine receptor binding (3H-spiroperidol); design: species or system rats; conditions: for inhibition at 10 µM: read-out: Limbic D-2 Binding, inhibition at 10 μM
Method: The test is carried out as follows:

[2] = test system: conditioned avoidance (shelf-jump response); assay: conditioned avoidance (shelf-jump response) test; conditions: Rattus norvegicus, ip, read-out: AB50
Method: This test is carried out as follows:
Male CD rats (Charles River) maintained at approximately 400-450 gm body weight are used. […] A moveable wall, controlled by a motor, determines whether the rat has access to the shelf at any time during the experiment. The experimental chamber also contains a house light and sonalert. A steel grid floor in the main chamber is wired for presentation of electric shock. Each trial consists of a fifteen-second warning tone (conditioned stimulus), continuing for an additional fifteen seconds accompanied by electric shock, (unconditioned stimulus). A response (jumping onto the exposed shelf of the upper chamber) occurring during the initial fifteen-second warning tone is considered an avoidance response, while a response occurring during shock delivery is considered an escape response. […]
The following experimental parameters are recorded by computer: (1) the number of avoidance responses, (2) the number of escape responses, and (3) the number of trials in which no response occurred.
Response counts are summed over all subjects at a given dose. […] This number is expressed as a percentage of the total trials. Control performance is arbitrarily assigned a value of 100% for avoidance and the dose calculated to produce a 50% block in avoidance responding (AB50) is obtained from a dose-effect regression line fitted by the method of least squares.

[3] = rat limbic tissue, 0.3 nM 3H-spiroperidol

Chain of limbic D-2 dopamine receptor (P61169 whole entry): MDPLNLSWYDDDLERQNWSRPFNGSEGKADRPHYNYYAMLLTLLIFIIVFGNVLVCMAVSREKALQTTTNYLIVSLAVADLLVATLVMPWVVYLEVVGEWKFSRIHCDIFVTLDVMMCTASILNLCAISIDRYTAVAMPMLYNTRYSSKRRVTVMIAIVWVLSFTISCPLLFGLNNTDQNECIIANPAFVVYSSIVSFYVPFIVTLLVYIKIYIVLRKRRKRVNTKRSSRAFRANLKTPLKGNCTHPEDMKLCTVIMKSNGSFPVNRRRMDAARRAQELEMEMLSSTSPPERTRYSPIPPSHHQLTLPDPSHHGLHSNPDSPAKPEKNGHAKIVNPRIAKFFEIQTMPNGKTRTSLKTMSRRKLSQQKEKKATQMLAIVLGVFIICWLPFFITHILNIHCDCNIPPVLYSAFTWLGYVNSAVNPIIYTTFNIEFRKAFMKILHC

Structure (SMILES)	ED50 [2]	inhibition at 10 µM [1]	inhibition at 1 µM [1, 3]	also measured
O=C1NC2(CC3CCC2C3)C(=O)N1CCCCN1CCN(c2ncccn2)CC1 (centres unmarked) [Example 2, 1-[4-[4-(2-Pyrimidinyl)-1-piperazinyl]butyl]spiro[bicyclo[2.2.1]heptane-2,4'-imidazolidine]-2',5'-dione, dihydrochloride]	33.3 mg/kg	–	–	Ki ([1]; rat limbic tissue, 0.3 nM 3H-spiroperidol, Table 1): 2000 nM
Cl.Cl.O=C1CNC(=O)N1CCCCN1CCN(c2ncccn2)CC1 [Example 3, 3-[4-[4-(2-Pyrimidinyl)-1-piperazinyl]butyl]-2,4-imidazolidinedione, dihydrochloride]	45.8 mg/kg	24%	–	–
O=C1NC2(CCCCC2)C(=O)N1CCCCN1CCN(c2ncccn2)CC1 [Example 4, 5,5-Pentamethylene-3-[4-[4-(2-pyrimidinyl)-4-piperazinyl]butyl]-2,4-imidazolidinedione, dihydrochloride]	–	–	10%	–
CC1(C)NC(=O)N(CCCCN2CCN(c3ncccn3)CC2)C1=O [Example 5, 5,5-Dimethyl-3-[4-[4-(2-pyrimidinyl)-4-piperazinyl]butyl]-2,4-imidazolidinedione, hydrochloride]	–	–	5%	–
O=C1NC2(CCCC2)C(=O)N1CCCCN1CCN(c2ncccn2)CC1 [Example 7, 5,5-Tetramethylene-3-[4-[4-(2-pyrimidinyl)-4-piperazinyl]butyl]-2,4-imidazolidinedione, dihydrochloride]	–	–	–	inhibition at 10 µM ([1]; 10 μM, rat limbic tissue, 0.3 nM 3H-spiroperidol): 51%
O=C1NC2(CCCC2)C(=O)N1CCCCN1CCC(O)(c2ccc(Cl)cc2)CC1 [Example 8, dihydrochloride]	–	40%	–	–
